From patent US12673039B2, “Methods of inducing autophagy using coumarin derivatives and related compounds” (Buck Institute for Research on Aging, priority 2019, dated 2026)

Target: T1, DAF-12 (Caenorhabditis elegans, UniProt G5EFF5)
T1 construct: expressed in transfected cells; host or cells: HEK293T
T1 sequence (G5EFF5 516-753 limits assumed): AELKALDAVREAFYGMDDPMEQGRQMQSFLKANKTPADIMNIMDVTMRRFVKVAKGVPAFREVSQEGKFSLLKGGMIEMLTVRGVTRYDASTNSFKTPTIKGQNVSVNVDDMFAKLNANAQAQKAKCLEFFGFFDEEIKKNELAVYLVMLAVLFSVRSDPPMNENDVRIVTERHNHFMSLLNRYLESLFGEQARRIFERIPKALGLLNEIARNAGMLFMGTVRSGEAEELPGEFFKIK
Assay: Mammalian one-hybrid DAF-12 activity assay (HEK293T)
Format: cell-based, human
Description: FIG. 10 illustrates that coumarin 106 (“C1”, “AIC106”) inhibits induction of the worm FXR homologue DAF-12. The ability of C1 (10 μM) to inhibit activation of the FXR worm homologue DAF-12 by its ligand dafachronic acid (Df acid); values are fold activity induction versus untreated controls; ****p<0.01 versus GW; **p<0.05 versus GW.
FIG. 22, panels A-H: AIC106-induced HLH-30 expression is mediated by the nuclear hormone receptor DAF-12. Panel A) The upstream promoter region (2 kB) of hlh-30 was analyzed by JASPAR CORE database to determine DAF-12 binding sites (1: SEQ ID NO:1, 2: 1: SEQ ID NO:2, 3: SEQ ID NO:3, 4: SEQ ID NO:4, 5: SEQ ID NO:5, 6: SEQ ID NO:6, 7: SEQ ID NO:7, 8: SEQ ID NO:8, 9: SEQ ID NO:9, 10: SEQ ID NO:10, 11: SEQ ID NO:11, 12: SEQ ID NO:12). Panel B) Relative fold change in mRNA of hlh-30 compared to DMSO-control was quantified using qRT-PCR in young adult wild-type N2 and daf-12(rh61rh411) worms post-24 hours treatment with AIC106. [N=3 independent experiments (mean±SD). **p<0.01, by one-way ANOVA with Sidak's multiple comparisons test]. Panel C) Effects of AIC106 on DAF-12 activity was determined in a mammalian one-hybrid assay by quantifying changes in the luciferase activity of DAF-12 ligand (dafachronic acid, DA) induced treatment. [N=3 independent experiments (mean±SD). *p<0.05 **p<0.01 and ***p<0.001, by one-way ANOVA with Tukey's multiple comparisons test]. Panel D) Schematic diagram showing that addition of AIC106 or inhibition of DAF-12 ligand synthesis, which leads to un-liganded DAF-12 may result in enhanced HLH-30 expression. Panel E) Dafadine-A (DFA), a specific inhibitor of key enzyme required for synthesis of DAF-12 ligand induces HLH-30 expression. Immunoblot for GFP was performed on protein lysate of HLH-30; GFP (MAH235) young adult worms treated with DFA or DMSO-control for 24 hours. Panel F) Protection against mitochondrial toxin (FCCP) was determined by quantifying survival of young adult worms treated 24 hours with DFA or DMSO-control. [N=3 independent experiments (mean±SD). **p<0.01, by two-way ANOVA with Tukey's multiple comparisons test]. Panel G) Motor function in day-7 NL5901 worms were quantified by scoring number of thrashes for an individual worm over the period of 30 seconds (dots) in DFA and DMSO-control treatment. [N=3 independent experiments (mean±SD). **p<0.01, by unpaired t-test] […] [N=3 independent experiments (mean±SD). *p<0.05, by one-way ANOVA with Tukey's multiple comparisons test].
FIG. 29, panels A-C: AIC106 modulates DAF-12 activity. […] Luciferase activity was measured to quantify DAF-12 activity. Panel C) Dose dependent increase in DAF-12 activity after treatment with known DAF-12 ligand, dafachronic acid (DA) was determined by quantifying luciferase activity. […]

For O=c1oc2c3c4c(cc2c2c1CCC2)CCCN4CCC3 [C1, 2,3,6,7,10,11-Hexahydro-1H,5H-cyclopenta(3,4)(1)benzopyrano(6,7,8-ij)quinolizin-12(9H)-one], which “activation of DAF-12 elicited by dafachronic acid” value (C1 10 μM (FIG. 10)) is on record?
The value was “inhibit activation of the FXR homologue DAF-12”.

What about the “DAF-12 activity (luciferase)” value (compound alone) of the same molecule?
Its value is “did not increase DAF-12 activity”.

What about the “DA-induced DAF-12 activity” value (in combination with dafachronic acid) of the same molecule?
Its value is “dose-dependent suppression of DA-induced DAF-12 activity”.
